Experimental data as given in patent publication US8759333B2, “Di-azetidinyl diamide as monoacylglycerol lipase inhibitors” (Janssen Pharmaceutica, NV, priority 2010, dated 2014).
Where a chain is given by its changes, count along the chain named.

Legend:
tail flick = details: intravenous delivery (Mechoulam et al.); cited from earlier work
hot plate = details: cited from earlier work
[1] = biological target: T1, mutant MGL (mut-MGLL 11-313 L179S L186S) (Homo sapiens, UniProt Q99685, L169S/L176S); assay: MGL Enzyme Activity Assay, purified mutant MGL, 4MU-B substrate; format: biochemical; details: mutant MGL 5 nM, 4MU-B 10 μM, 37° C.; read-out: MGL mutant inh IC50
T1 construct: purified mutant MGL (mut-MGLL 11-313 L179S L186S)
T1 sequence (Q99685 1-303 L169S/L176S): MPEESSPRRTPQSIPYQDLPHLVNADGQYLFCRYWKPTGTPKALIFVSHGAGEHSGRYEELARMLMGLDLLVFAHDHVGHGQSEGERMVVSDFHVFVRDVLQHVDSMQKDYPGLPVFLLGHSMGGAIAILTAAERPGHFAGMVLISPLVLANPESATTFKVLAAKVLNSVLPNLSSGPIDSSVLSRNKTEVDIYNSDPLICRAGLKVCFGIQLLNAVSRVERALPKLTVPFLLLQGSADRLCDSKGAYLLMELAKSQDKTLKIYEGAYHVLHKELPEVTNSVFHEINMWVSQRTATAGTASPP
How it was run: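 Purified mutant MGL (5 nM final) with 10 μM 4MU-B in 20 mM PIPES pH 7.0, 150 mM NaCl, 0.001% Tween 20; compounds 17 to 0.0003 μM final. Fluorescence (ex 335/em 440 nm) followed 5 min at 37 °C; IC50 from fit of fractional activity versus inhibitor concentration.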

[2] = biological target: T2, wild type MGL (wt-MGLL 6H-11-313) (Homo sapiens, UniProt Q99685); assay: MGL Enzyme Activity Assay, purified wild type MGL, 4MU-B substrate; format: biochemical; details: wild type MGL 5 nM, 4MU-B 10 μM, 37° C.; read-out: MGL wild type inh IC50
T2 construct: purified wild type MGL (wt-MGLL 6H-11-313); 6H (hexahistidine) (N)
T2 sequence (Q99685 1-303): T1 sequence (Q99685 1-303 L169S/L176S) with S169L, S176L
Procedure: All rate-based assays were performed in black 384-well polypropylene PCR microplates (Abgene) in a total volume of 30 μL. […] Final compound concentrations ranged from 17 to 0.0003 μM.
The IC50 values for the following compounds were determined using Microsoft Office Excel from a fit of the equation to the concentration-response plot of the fractional activity as a function of inhibitor concentration.

MGL = biological target: T3, MGL (Rattus norvegicus, UniProt Q8R431); assay: 2-AG Accumulation Assay in rat brain homogenate; format: biochemical; details: percent of vehicle; for activity at 1 µM: compound @1 µM, read-out: Rat Brain 2AG % VehCntrl (%) @1 µM; for activity at 10 µM: compound @10 µM, read-out: Rat Brain 2AG % VehCntrl (%) @10 µM
T3 construct: one g rat brain was homogenized using a Polytron homogenizer; from tissue; host or cells: rat brain homogenate
T3 sequence (Q8R431 1-303): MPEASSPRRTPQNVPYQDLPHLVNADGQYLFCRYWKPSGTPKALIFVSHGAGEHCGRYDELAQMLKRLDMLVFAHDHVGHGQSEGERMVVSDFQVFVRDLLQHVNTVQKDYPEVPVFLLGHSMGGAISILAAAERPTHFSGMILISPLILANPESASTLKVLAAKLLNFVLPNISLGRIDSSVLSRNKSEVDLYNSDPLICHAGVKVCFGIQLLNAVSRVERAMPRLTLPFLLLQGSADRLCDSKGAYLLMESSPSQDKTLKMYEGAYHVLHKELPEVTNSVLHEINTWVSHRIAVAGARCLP

mutant MGL = biological target: T4, mutant MGL (Homo sapiens, UniProt Q99685, L169S/L176S); assay: MGL ThermoFluor Assay - Mutant; format: binding; details: 0.07 mg/ml mutant MGL, 100 μM ANS, pH 7.0
T4 construct: purified mutant MGL (mut-MGLL 11-313 L179S L186S)
T4 sequence (Q99685 1-303 L169S/L176S): T1 sequence (Q99685 1-303 L169S/L176S)
How it was run: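 Thermal-shift binding with 0.07 mg/ml L169S/L176S mutant MGL, 100 μM 1,8-ANS, 200 mM NaCl, 0.001% Tween-20, 50 mM PIPES pH 7.0, heated 40–90 °C at 1 °C/min.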

[3] = test system: CFA-Induced Paw Radiant Heat Hypersensitivity; assay: CFA-Induced Paw Radiant Heat Hypersensitivity; format: in vivo; details: rat, HPβCD; for inhibition in vivo at 30 mg/kg / inhibition in vivo at 10 mg/kg: po, 5 h, group mean values, read-out: Method 1: peak % reversal; for Method 2: peak % reversal: individual animal values
Procedure: Each rat was placed in a test chamber on a warm glass surface and allowed to acclimate for approximately 10 min. A radiant thermal stimulus (beam of light) was focused through the glass onto the plantar surface of each hind paw in turn. The thermal stimulus was automatically shut off by a photoelectric relay when the paw was moved or when the cut-off time was reached (20 sec for radiant heat at ˜5 amps). An initial (baseline) response latency to the thermal stimulus was recorded for each animal prior to the injection of complete Freund's adjuvant (CFA). Twenty-four hours following intraplantar CFA injection, the response latency of the animal to the thermal stimulus was re-evaluated and compared to the animal's baseline response time. […] Immediately following the post-CFA latency assessment, the indicated test compound or vehicle was administered orally. Post-compound treatment withdrawal latencies were assessed at fixed time intervals, typically 30, 60, 120, 180, and 300 min.
The percent reversal (% R) of hypersensitivity was calculated in one of two different ways:
1) using group mean values or 2) using individual animal values. More specifically:
Method 1. For all compounds, the % R of hypersensitivity was calculated using the mean value for groups of animals at each time point according to the following formula: % reversal=[(group treatment response−group CFA response)/(group baseline response−group CFA response)]×100 Results were given for the maximum % reversal observed for each compound at any time point tested.
Method 2. For some compounds, the % R of hypersensitivity was calculated separately for each animal according to the following formula: % reversal=[(individual treatment response−individual CFA response)/(individual baseline response−individual CFA response)]×100.
Results are given as a mean of the maximum % reversal values calculated for each individual animal.

[4] = test system: murine model of acute inflammation; details: murine model of acute inflammation (Comelli et al.); cited from earlier work
[5] = 30 mg/kg p.o., last time point 300 min (180 min for Cpd 17, 77)
[6] = 10 mg/kg p.o., last time point 300 min

Row | SMILES | analgesia in tail flick assay (tail flick) | analgesia in hot plate assay, given alone (hot plate; 2-AG given alone (Ben-Shabat et al.)) | analgesia in hot plate assay (hot plate; intravenous delivery (Lichtman et al.)) | IC50 [1] [nM] | IC50 [2] [nM] | activity at 1 µM (MGL) [%] | activity at 10 µM (MGL) [%] | Kd (mutant MGL) [nM] | inhibition in vivo at 30 mg/kg [3, 5] [%] | Method 2: peak % reversal [3, 5] [%] | inhibition in vivo at 10 mg/kg [3, 6] [%] | Method 2: peak % reversal [3, 6] [%] | antinociceptive effect [4]
1 | CCCCC/C=C\C/C=C\C/C=C\C/C=C\CCCC(=O)OC(CO)CO [2-AG, 2-arachidinoylglycerol] | produces analgesia | not analgesic | produces analgesia | – | – | – | – | – | – | – | – | – | –
2 | O=C(NC1CN(C2CN(C(=O)c3ccc4nc(-c5ccccc5)oc4c3)C2)C1)c1nccs1 [Cpd 17, N-{1′-[(2-Phenyl-1,3-benzoxazol-6-yl)carbonyl]-1,3′-biazetidin-3-yl}-1,3-thiazole-2-carboxamide] | – | – | – | 48 | 37 | 355 | 486 | 333 | 27 | 31.5 | – | – | –
3 | O=C(c1ccc2c(ccn2-c2ccc(C(F)(F)F)cc2)c1)N1CC(N2CC(N3Cc4ccccc4C3=O)C2)C1 [Cpd 70, 2-[1′-({1-[4-(Trifluoromethyl)phenyl]-1H-indol-5-yl}carbonyl)-1,3′-biazetidin-3-yl]-2,3-dihydro-1H-isoindol-1-one] | – | – | – | 8 | < 5 | 483 | 736 | 3.5 | 4.7 | 5 | 28.2 | 22.5 | –
4 | O=C(c1ccc(-c2ccc(C(F)(F)F)s2)cc1)N1CC(N2CC(N3Cc4ccccc4C3=O)C2)C1 [Cpd 76, 2-[1′-({4-[5-(Trifluoromethyl)thiophen-2-yl]phenyl}carbonyl)-1,3′-biazetidin-3-yl]-2,3-dihydro-1H-isoindol-1-one] | – | – | – | 15 | < 5 | 204 | 725 | 10 | 17.1 | 17.7 | 15.7 | 26.7 | –
5 | O=C(c1ccc2oc(-c3ccccc3)nc2c1)N1CC(N2CC(N3Cc4ccccc4C3=O)C2)C1 [Cpd 77, 2-{1′-[(2-Phenyl-1,3-benzoxazol-5-yl)carbonyl]-1,3′-biazetidin-3-yl}-2,3-dihydro-1H-isoindol-1-one] | – | – | – | 16 | 31 | – | 478 | 100 | 9.9 | 6.9 | – | – | –
6 | O=C(c1cc2cc(-c3ccccc3)ccc2s1)N1CC(N2CC(N3Cc4ccccc4C3=O)C2)C1 [Cpd 79, 2-{1′-[(5-Phenyl-1-benzothiophen-2-yl)carbonyl]-1,3′-biazetidin-3-yl}-2,3-dihydro-1H-isoindol-1-one] | – | – | – | 18 | 10 | 253 | 676 | 33.3 | 33.7 | – | – | – | –
7 | O=C(c1sc2cc(C(F)(F)F)ccc2c1Cl)N1CC(N2CC(N3Cc4ccccc4C3=O)C2)C1 [Cpd 99, 2-(1′-{[3-Chloro-6-(trifluoromethyl)-1-benzothiophen-2-yl]carbonyl}-1,3′-biazetidin-3-yl)-2,3-dihydro-1H-isoindol-1-one] | – | – | – | < 5 | < 5 | 449 | – | 2.7 | 27.6 | – | – | – | –
8 | O=C(Nc1cccc(-c2ccccc2)c1)OC1CCCCC1 [URB602] | – | – | – | – | – | – | – | – | – | – | – | – | showed an antinociceptive effect
